Assay results published in US20250051277A1, “DELIVERY OF THERAPEUTIC ALKALOID COMPOUNDS” (Sensorium Therapeutics, Inc., priority 2021, published 2025).
Where two headings read alike, the source gives them in different places.

How the values were obtained:
[1] = 5 μM
[2] = Plasma Stability Assay of Example A3, human plasma; details: 5 μM, 37° C., % of prodrug compound remaining
[3] = 10 μM
[4] = 5 μM; remark: listed apart in the source
[5] = 10 μM; remark: listed apart in the source
[6] = Plasma Stability Assay of Example A3, mouse plasma; details: 5 μM, 37° C., % of prodrug compound remaining
[7] = type: physicochemical; details: DI water, 25° C., 0.5 mM
[8] = type: physicochemical; details: SGF with pepsin, pH 1.5, 37° C., 0.5 mM
[9] = in vivo
Procedure: Male C57/BL6 mice were used to evaluate each compound, with n=3 mice/time point.
Animals were administered through intravenous route with solution formulation at 2 mg/kg dose. […] Following blood collection, immediately, animals were sacrificed, and vena-cava was cut open and blood was drained. […] Brain samples were collected from set of three mice at each time point. […] Brain samples were homogenized using 2 volumes of ice-cold PBS (pH-7.4) of brain weight. […] Concentrations of compound (or compound and metabolite) in mouse plasma and brain samples were determined by fit for purpose LC-MS/MS method.

[10] = Plasma Stability Assay of Example A4, rat plasma; details: 37° C., 10 μM
[11] = Hydrolysis Assay of Example A1 (conversion by LCMS); type: physicochemical; details: pH = 2.0, 25° C., 0.5 mM, 0.01M HCl; 0-48 h
Procedure: The hydrolysis kinetics was under a certain temperature and measured by LCMS at a certain time interval. The corresponding LCMS chromatograms were recorded and the conversions were calculated. The hydrolysis conditions and the data were summarized in below table. LCMS spectra were obtained using Agilent 1200/G1956A or SHIMADZU LCMS-2020. Standard LCMS conditions were as follows (running time 1.55 minutes): • Acidic condition: Mobile Phase A: 0.0375% TFA in water (v/v). Mobile Phase B: 0.01875% TFA in acetonitrile (v/v); Column: Kinetex EVO C18 30*2.1 mm, 5 μm. • Basic condition: Mobile Phase A: 0.025% NH3·H2O in water (v/v). Mobile Phase B: Acetonitrile; Column: Kinetex EVO C18 2.1×30 mm, 5 μm. • Conversion (%)=peak area 1/(peak area 1+peak area 2)*100%, peak area 1 is the integration of hydrolyzed product, peak area 2 is the integration of starting material.

[12] = Plasma Stability Assay of Example A4, human plasma; details: 37° C., 10 μM

COc1ccc([C@@]23CCC(OC(=O)c4ccc(C(C)C)cc4)=C[C@@H]2N(C)CC3)cc1OC [Compound 371, (3aS,7aS)-3a-(3,4-dimethoxyphenyl)-1-methyl-2,3,3a,4,5,7a-hexahydro-1H-indol-6-yl4-isopropylbenzoate]
Human Plasma Compound 001 (%) ([1]; 0 min): 0.00%
Human Plasma Compound 001 (%) ([1]; 60 min): 2.67%
Human Plasma Compound 001 (%) ([1]; 120 min): 5.08%
Human Plasma Compound 001 (%) ([1]; 240 min): 3.85%
Human Plasma Prodrug (%) ([2]; 0 min): 100%
Human Plasma Prodrug (%) ([2]; 15 min): 99%
Human Plasma Prodrug (%) ([2]; 30 min): 92%
Human Plasma Prodrug (%) ([2]; 60 min): 87%
Human Plasma Prodrug (%) ([2]; 120 min): 78%
Human Plasma Prodrug (%) ([2]; 240 min): 27%
Prodrug (%) remaining, Human Plasma ([3]; 0 h): 100.0%
Prodrug (%) remaining, Human Plasma ([3]; 10 min): >99%
Prodrug (%) remaining, Human Plasma ([3]; 0.5 h): 94.4%
Prodrug (%) remaining, Human Plasma ([3]; 1 h): 90.7%
Prodrug (%) remaining, Human Plasma ([3]; 2 h): 91.3%
Prodrug (%) remaining, Human Plasma ([3]; 4 h): 78.0%
Mouse Plasma Compound 001 (%) ([4]; 0 min): 28.4%
Mouse Plasma Compound 001 (%) ([4]; 15 min): 31.54%
Mouse Plasma Compound 001 (%) ([4]; 30 min): 29.63%
Mouse Plasma Compound 001 (%) ([4]; 60 min): 30.25%
Mouse Plasma Compound 001 (%) ([4]; 120 min): 26.59%
Mouse Plasma Compound 001 (%) ([4]; 240 min): 19.82%
Prodrug (%) remaining, Rat Plasma ([5]; 0 h): 100.0%
Prodrug (%) remaining, Rat Plasma ([5]; 10 min): 5.0%
Prodrug (%) remaining, Rat Plasma ([5]; 0.5 h): 0.2%
Prodrug (%) remaining, Rat Plasma ([5]; 1 h): 0.1%
Prodrug (%) remaining, Rat Plasma ([5]; 2 h): 0.0%
Prodrug (%) remaining, Rat Plasma ([5]; 4 h): 0.0%
Mouse Plasma Prodrug (%) ([6]; 0 min): 100%
Mouse Plasma Prodrug (%) ([6]; 15 min): 10%
Mouse Plasma Prodrug (%) ([6]; 30 min): 0%
Mouse Plasma Prodrug (%) ([6]; 60 min): 0%
Mouse Plasma Prodrug (%) ([6]; 120 min): 0%
Mouse Plasma Prodrug (%) ([6]; 240 min): 0%

CCC(=O)OC1=C[C@@H]2N(C)CC[C@]2(c2ccc(OC)c(OC)c2)CC1 [Compound 317, [(3aS,7aS)-3a-(3,4-dimethoxyphenyl)-1-methyl-3,4,5,7a-tetrahydro-2H-indol-6-yl]propanoate]
Condition 2 Conversion (%) ([7]; time 1 min): 0%
Condition 2 Conversion (%) ([7]; time 5 min): 0%
Condition 2 Conversion (%) ([7]; time 30 min): 0%
Condition 2 Conversion (%) ([7]; time 1 h): 0%
Condition 2 Conversion (%) ([7]; time 4 h): 0%
Condition 2 Conversion (%) ([7]; time 24 h): 0%
Condition 1 Conversion (%) ([8]; time 1 min): 0%
Condition 1 Conversion (%) ([8]; time 5 min): 0%
Condition 1 Conversion (%) ([8]; time 30 min): 0%
Condition 1 Conversion (%) ([8]; time 1 h): 0%
Condition 1 Conversion (%) ([8]; time 4 h): 0%
Condition 1 Conversion (%) ([8]; time 24 h): 0%
quantifiable levels of 001 in plasma up to ([9]; male, C57BL/6, mouse): 60 min
Plasma levels of 001 ([9]; mouse, iv, 2 mg/kg): not detectable

COc1ccc([C@@]23CCC(OC(=O)c4c(C)cccc4C)=C[C@@H]2N(C)CC3)cc1OC [Compound 372, (3aS,7aS)-3a-(3,4-dimethoxyphenyl)-1-methyl-2,3,3a,4,5,7a-hexahydro-1H-indol-6-yl2,6-dimethylbenzoate]
Human Plasma Compound 001 (%) ([1]; 0 min): 0.00%
Human Plasma Prodrug (%) ([2]; 0 min): 100%
Human Plasma Prodrug (%) ([2]; 15 min): 97%
Human Plasma Prodrug (%) ([2]; 30 min): 99%
Human Plasma Prodrug (%) ([2]; 60 min): 94%
Human Plasma Prodrug (%) ([2]; 120 min): 81%
Human Plasma Prodrug (%) ([2]; 240 min): 38%
Prodrug (%) remaining, Human Plasma ([3]; 0 h): 100.0%
Prodrug (%) remaining, Human Plasma ([3]; 10 min): >99%
Prodrug (%) remaining, Human Plasma ([3]; 0.5 h): >99%
Prodrug (%) remaining, Human Plasma ([3]; 1 h): >99%
Prodrug (%) remaining, Human Plasma ([3]; 2 h): >99%
Prodrug (%) remaining, Human Plasma ([3]; 4 h): >99%
Mouse Plasma Compound 001 (%) ([4]; 0 min): 0%
Prodrug (%) remaining, Rat Plasma ([5]; 0 h): 100.0%
Prodrug (%) remaining, Rat Plasma ([5]; 10 min): >99%
Prodrug (%) remaining, Rat Plasma ([5]; 0.5 h): >99%
Prodrug (%) remaining, Rat Plasma ([5]; 1 h): >99%
Prodrug (%) remaining, Rat Plasma ([5]; 2 h): 98.4%
Prodrug (%) remaining, Rat Plasma ([5]; 4 h): >99%
Mouse Plasma Prodrug (%) ([6]; 0 min): 100%
Mouse Plasma Prodrug (%) ([6]; 15 min): 92%
Mouse Plasma Prodrug (%) ([6]; 30 min): 91%
Mouse Plasma Prodrug (%) ([6]; 60 min): 88%
Mouse Plasma Prodrug (%) ([6]; 120 min): 73%
Mouse Plasma Prodrug (%) ([6]; 240 min): 64%

COc1ccc([C@@]23CCC(OC(C)=O)=C[C@@H]2N(C)CC3)cc1OC [Compound 026, [(3aS,7aS)-3a-(3,4-dimethoxyphenyl)-1-methyl-3,4,5,7a-tetrahydro-2H-indol-6-yl]acetate]
Compound 001 (%) (metabolite mesembrine), Rat Plasma ([10]; time 0.0 min): 96.2%
Prodrug (%) remaining, Rat Plasma ([10]; time 0.0 min): 100.0%
Compound 001 (%) (metabolite mesembrine), Rat Plasma ([10]; time 10 min): >99%
Prodrug (%) remaining, Rat Plasma ([10]; time 10 min): 0.0%
Compound 001 (%) (metabolite mesembrine), Rat Plasma ([10]; time 30 min): >99%
Prodrug (%) remaining, Rat Plasma ([10]; time 30 min): 0.0%
Compound 001 (%) (metabolite mesembrine), Rat Plasma ([10]; time 60 min): >99%
Prodrug (%) remaining, Rat Plasma ([10]; time 60 min): 0.0%
Compound 001 (%) (metabolite mesembrine), Rat Plasma ([10]; time 120 min): >99%
Prodrug (%) remaining, Rat Plasma ([10]; time 120 min): 0.0%
Compound 001 (%) (metabolite mesembrine), Rat Plasma ([10]; time 240 min): >99%
Prodrug (%) remaining, Rat Plasma ([10]; time 240 min): 0.0%
Condition 2 Conversion (%) ([7]; time 1 min): 0%
Condition 2 Conversion (%) ([7]; time 5 min): 0%
Condition 2 Conversion (%) ([7]; time 30 min): 0%
Condition 2 Conversion (%) ([7]; time 1 h): 0%
Condition 2 Conversion (%) ([7]; time 4 h): 0%
Condition 2 Conversion (%) ([7]; time 24 h): 0%
Conversion (%) [11]: 0%
Notes (hydrolysis) [11]: Stable;
Compound 001 (%) (metabolite mesembrine), Human Plasma ([12]; time 0.0 min): >99%
Prodrug (%) remaining, Human Plasma ([12]; time 0.0 min): 100.0%
Compound 001 (%) (metabolite mesembrine), Human Plasma ([12]; time 10 min): >99%
Prodrug (%) remaining, Human Plasma ([12]; time 10 min): 40.3%
Compound 001 (%) (metabolite mesembrine), Human Plasma ([12]; time 30 min): >99%
Prodrug (%) remaining, Human Plasma ([12]; time 30 min): 23.5%
Compound 001 (%) (metabolite mesembrine), Human Plasma ([12]; time 60 min): >99%
Prodrug (%) remaining, Human Plasma ([12]; time 60 min): 12.0%
Compound 001 (%) (metabolite mesembrine), Human Plasma ([12]; time 120 min): >99%
Prodrug (%) remaining, Human Plasma ([12]; time 120 min): 3.4%
Compound 001 (%) (metabolite mesembrine), Human Plasma ([12]; time 240 min): >99%
Prodrug (%) remaining, Human Plasma ([12]; time 240 min): 0.8%
Condition 1 Conversion (%) ([8]; time 1 min): 0%
Condition 1 Conversion (%) ([8]; time 5 min): 0%
Condition 1 Conversion (%) ([8]; time 30 min): 0%
Condition 1 Conversion (%) ([8]; time 1 h): 0%
Condition 1 Conversion (%) ([8]; time 4 h): 0%
Condition 1 Conversion (%) ([8]; time 24 h): 0%

COc1ccc([C@@]23CCC(=NNC(=O)Nc4ccc(C(=O)O)cc4)C[C@@H]2N(C)CC3)cc1OC (racemic) [Compound 259, 4-[[[(3aS,7aS)-3a-(3,4-dimethoxyphenyl)-1-methyl-2,3,4,5,7,7a-hexahydroindol-6-ylidene]amino]carbamoylamino]benzoic acid]
Human Plasma Prodrug (%) ([1]; 0 min): 100%
Human Plasma Prodrug (%) ([1]; 15 min): >99%
Human Plasma Prodrug (%) ([1]; 30 min): 96.6%
Human Plasma Prodrug (%) ([1]; 60 min): 85.7%
Human Plasma Prodrug (%) ([1]; 120 min): 70.0%
Human Plasma Prodrug (%) ([1]; 240 min): 54.3%
Mouse Plasma Prodrug (%) ([4]; 0 min): 100%
Mouse Plasma Prodrug (%) ([4]; 15 min): 86.2%
Mouse Plasma Prodrug (%) ([4]; 30 min): 81.0%
Mouse Plasma Prodrug (%) ([4]; 60 min): 67.6%
Mouse Plasma Prodrug (%) ([4]; 120 min): 38.7%
Mouse Plasma Prodrug (%) ([4]; 240 min): 19.8%
Condition 2 Conversion (%) ([7]; time 1 min): 0%
Condition 2 Conversion (%) ([7]; time 5 min): 0%
Condition 2 Conversion (%) ([7]; time 30 min): 0%
Condition 2 Conversion (%) ([7]; time 1 h): 2%
Condition 2 Conversion (%) ([7]; time 4 h): 4.3%
Condition 2 Conversion (%) ([7]; time 24 h): 7.8%
Condition 1 Conversion (%) ([8]; time 1 min): 3.6%
Condition 1 Conversion (%) ([8]; time 5 min): 4.1%
Condition 1 Conversion (%) ([8]; time 30 min): 16.5%
Condition 1 Conversion (%) ([8]; time 1 h): 25%
Condition 1 Conversion (%) ([8]; time 4 h): 29.5%
Condition 1 Conversion (%) ([8]; time 24 h): 31.9%
